Where two headings read alike, the source gives them in different places.
Experiments:
[1] = system: cyclin D1; assay: Cyclin D1 percentage degradation in Calu-1 cells (immunoblotting); format: cell-based; settings: 16 hours
Method in brief: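 Cyclin D1 degradation was assessed by western blot. Clarified lysates, obtained by RIPA lysis with inhibitors and centrifugation at 13,000 rpm, were normalized by BCA protein assay and separated by SDS-PAGE. Bands were detected with Western ECL Substrate on a Bio-Rad ChemiDoc MP Imaging system and quantified in Image Lab software to derive percentage degradation.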

[2] = biological target: T1, CDK4 (Homo sapiens, UniProt P11802); assay: CDK4 percentage degradation in Calu-1 cells (immunoblotting); format: cell-based; settings: for inhibition at 0.2 µM: read-out: CDK4 Degradation (200 nM); for inhibition at 10 µM: read-out: CDK4 Degradation (10 μM)
T1 construct: endogenous in cells; host or cells: Calu-1
Method in brief: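 CDK4 degradation was measured by immunoblotting. Cells were washed in cold PBS and lysed in RIPA buffer with inhibitors for 30 min at 4° C., then spun at 13,000 rpm to clear. After BCA protein determination, lysates were heated at 99° C. for 5 min in Laemmli buffer, resolved on SDS-PAGE, imaged on a ChemiDoc MP with ECL substrate, and band intensities quantified.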

T1 sequence (P11802 2-303 limits assumed): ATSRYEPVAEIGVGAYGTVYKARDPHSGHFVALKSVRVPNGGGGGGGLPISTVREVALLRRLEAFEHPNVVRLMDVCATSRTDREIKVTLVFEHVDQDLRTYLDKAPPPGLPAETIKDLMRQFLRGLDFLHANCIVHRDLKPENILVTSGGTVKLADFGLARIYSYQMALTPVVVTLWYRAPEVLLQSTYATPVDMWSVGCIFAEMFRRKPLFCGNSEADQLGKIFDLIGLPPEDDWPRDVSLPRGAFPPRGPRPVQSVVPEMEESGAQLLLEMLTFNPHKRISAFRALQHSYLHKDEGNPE
T1 sequence (P24385 whole entry partner): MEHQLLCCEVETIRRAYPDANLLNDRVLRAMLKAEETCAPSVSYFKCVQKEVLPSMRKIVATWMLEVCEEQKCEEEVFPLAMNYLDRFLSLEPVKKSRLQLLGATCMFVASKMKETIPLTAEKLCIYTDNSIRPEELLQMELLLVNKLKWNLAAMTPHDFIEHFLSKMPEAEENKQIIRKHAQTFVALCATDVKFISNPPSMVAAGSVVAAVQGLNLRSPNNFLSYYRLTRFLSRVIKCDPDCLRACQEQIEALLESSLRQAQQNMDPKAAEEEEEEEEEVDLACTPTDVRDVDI
T1 sequence (Q16531 2-1140 limits assumed, further chain): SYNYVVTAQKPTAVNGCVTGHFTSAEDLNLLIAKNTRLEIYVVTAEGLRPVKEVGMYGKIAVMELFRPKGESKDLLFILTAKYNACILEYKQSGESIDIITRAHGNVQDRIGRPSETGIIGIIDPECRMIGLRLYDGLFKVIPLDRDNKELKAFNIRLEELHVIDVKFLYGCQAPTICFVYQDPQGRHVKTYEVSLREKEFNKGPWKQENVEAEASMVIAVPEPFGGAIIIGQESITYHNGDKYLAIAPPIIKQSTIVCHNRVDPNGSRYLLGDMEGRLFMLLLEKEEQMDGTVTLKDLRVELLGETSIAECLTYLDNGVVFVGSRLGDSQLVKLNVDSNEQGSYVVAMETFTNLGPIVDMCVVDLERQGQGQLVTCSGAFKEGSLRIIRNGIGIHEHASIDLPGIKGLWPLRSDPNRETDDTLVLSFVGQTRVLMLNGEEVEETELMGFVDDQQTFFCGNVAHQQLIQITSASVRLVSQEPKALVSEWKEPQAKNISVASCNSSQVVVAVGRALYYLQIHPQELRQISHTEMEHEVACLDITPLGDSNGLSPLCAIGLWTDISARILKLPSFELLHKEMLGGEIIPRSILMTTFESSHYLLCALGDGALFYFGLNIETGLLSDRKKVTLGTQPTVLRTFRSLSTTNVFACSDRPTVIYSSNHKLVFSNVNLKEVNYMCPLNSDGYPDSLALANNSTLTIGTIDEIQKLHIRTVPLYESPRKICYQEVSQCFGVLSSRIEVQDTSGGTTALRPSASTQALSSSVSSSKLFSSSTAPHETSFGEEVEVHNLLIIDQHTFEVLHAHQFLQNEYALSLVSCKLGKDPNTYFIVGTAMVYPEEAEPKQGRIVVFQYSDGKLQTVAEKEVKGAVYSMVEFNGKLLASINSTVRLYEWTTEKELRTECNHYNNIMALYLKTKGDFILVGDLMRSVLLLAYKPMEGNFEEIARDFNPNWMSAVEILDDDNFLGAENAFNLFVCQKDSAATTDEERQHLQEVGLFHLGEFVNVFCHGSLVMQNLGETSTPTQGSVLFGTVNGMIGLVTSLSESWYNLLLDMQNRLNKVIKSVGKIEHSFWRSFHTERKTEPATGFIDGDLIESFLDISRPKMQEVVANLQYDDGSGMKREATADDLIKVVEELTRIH

Compound	CyclinD1 Degradation (200 nM) [1]	inhibition at 0.2 µM ([2]; Calu-1 cells, 200 nM, 16 hours) [%]	inhibition at 0.2 µM ([2]; Calu-1, 16 h) [%]	CyclinD1 Degradation (10 μM) [1]	inhibition at 10 µM ([2]; Calu-1 cells, 16 hours) [%]
CC(=O)c1c(C)c2cnc(Nc3ccc(N4CCN(CC(=O)NCCOCCOCCC(=O)Nc5ccccc5C(=O)Nc5nc(C(F)(F)F)c(C)s5)CC4)cn3)nc2n(C2CCCC2)c1=O [CPD-077, 2-(3-(2-(2-(2-(4-(6-((6-Acetyl-8-cyclopentyl-5-methyl-7-oxo-7,8-dihydropyrido[2,3-d]pyrimidin-2-yl)amino)pyridin-3-yl)piperazin-1-yl)acetamido)ethoxy)ethoxy)propanamido)-N-(5-methyl-4-(trifluoromethyl)thiazol-2-yl)benzamide]	D (protein percentage degradation <30%)	50 to 80	–	–	–
CC(=O)c1c(C)c2cnc(Nc3ccc(N4CCN(CC(=O)NCCOCCOCCOCCNC(=O)COc5ccc(C(=O)Nc6ncc(C)s6)c(C)c5)CC4)cn3)nc2n(C2CCCC2)c1=O [CPD-040, 4-((17-(4-(6-((6-Acetyl-8-cyclopentyl-5-methyl-7-oxo-7,8-dihydropyrido[2,3-d]pyrimidin-2-yl)amino)pyridin-3-yl)piperazin-1-yl)-2,16-dioxo-6,9,12-trioxa-3,15-diazaheptadecyl)oxy)-2-methyl-N-(5-methylthiazol-2-yl)benzamide]	D (protein percentage degradation <30%)	< 30	–	–	–
CC(=O)c1c(C)c2cnc(Nc3ccc(N4CCN(CCOCCOCCOCCC(=O)Nc5ccccc5C(=O)Nc5nc(C)c(C)s5)CC4)cn3)nc2n(C2CCCC2)c1=O [CPD-178, 2-(3-(2-(2-(2-(4-(6-((6-Acetyl-8-cyclopentyl-5-methyl-7-oxo-7,8-dihydropyrido[2,3-d]pyrimidin-2-yl)amino)pyridin-3-yl)piperazin-1-yl)ethoxy)ethoxy)ethoxy)propanamido)-N-(4,5-dimethylthiazol-2-yl)benzamide]	D (protein percentage degradation <30%)	–	< 30	–	–
Cc1nc(NC(=O)c2ccccc2NC(=O)CCOCCOCCOCCNC(=O)CN2CCN(c3ccc(Nc4ncc5cc(C(=O)N(C)C)n(C6CCCC6)c5n4)nc3)CC2)sc1C [CPD-296, 7-Cyclopentyl-2-((5-(4-(15-((2-((4,5-dimethylthiazol-2-yl)carbamoyl)phenyl)amino)-2,15-dioxo-6,9,12-trioxa-3-azapentadecyl)piperazin-1-yl)pyridin-2-yl)amino)-N,N-dimethyl-7H-pyrrolo[2,3-d]pyrimidine-6-carboxamide]	–	–	–	A (protein percentage degradation >= 80%)	50 to 80
CC(=O)c1c(C)c2cnc(Nc3ccc(N4CCN(CC(=O)NCCOCCOCCOCCOCCOCCNC(=O)c5ccc(C(=O)Nc6ncc(C)s6)c(C)c5)CC4)cn3)nc2n(C2CCCC2)c1=O [CPD-008, N^4-(1-(4-(6-((6-Acetyl-8-cyclopentyl-5-methyl-7-oxo-7,8-dihydropyrido[2,3-d]pyrimidin-2-yl)amino)pyridin-3-yl)piperazin-1-yl)-2-oxo-6,9,12,15,18-pentaoxa-3-azaicosan-20-yl)-2-methyl-N^1-(5-methylthiazol-2-yl)terephthalamide]	D (protein percentage degradation <30%)	< 30	–	–	–
CC(=O)c1c(C)c2cnc(Nc3ccc(N4CCN(CC(=O)NCCOCCOCCOCCOCCOCCNc5ccc(C(=O)Nc6nc(-c7ccccc7)c(C)s6)c(C)c5)CC4)cn3)nc2n(C2CCCC2)c1=O [CPD-034]	D (protein percentage degradation <30%)	< 30	–	–	–
CC(=O)c1c(C)c2cnc(Nc3ccc(N4CCN(CC(=O)NCCOCCOCCC(=O)Nc5ccccc5C(=O)Nc5ccc(C)nc5)CC4)cn3)nc2n(C2CCCC2)c1=O [CPD-060, 2-(3-(2-(2-(2-(4-(6-((6-Acetyl-8-cyclopentyl-5-methyl-7-oxo-7,8-dihydropyrido[2,3-d]pyrimidin-2-yl)amino)pyridin-3-yl)piperazin-1-yl)acetamido)ethoxy)ethoxy)propanamido)-N-(6-methylpyridin-3-yl)benzamide]	A (protein percentage degradation >=80%)	50 to 80	–	–	–
CC(=O)c1c(C)c2cnc(Nc3ccc(N4CCN(CC(=O)NCCCCCCCNc5ccccc5C(=O)Nc5nc(C)c(C)s5)CC4)cn3)nc2n(C2CCCC2)c1=O [CPD-364, 2-((7-(2-(4-(6-((6-Acetyl-8-cyclopentyl-5-methyl-7-oxo-7,8-dihydropyrido[2,3-d]pyrimidin-2-yl)amino)pyridin-3-yl)piperazin-1-yl)acetamido)heptyl)amino)-N-(4,5-dimethylthiazol-2-yl)benzamide]	A (protein percentage degradation >=80%)	50 to 80	–	–	–
COc1ccc(NC(=O)c2ccccc2NC(=O)CCCCN2CCC(NC(=O)CN3CCN(c4ccc(Nc5ncc6c(C)c(C(C)=O)c(=O)n(C7CCCC7)c6n5)nc4)CC3)CC2)nn1 [CPD-346, 2-(5-(4-(2-(4-(6-((6-Acetyl-8-cyclopentyl-5-methyl-7-oxo-7,8-dihydropyrido[2,3-d]pyrimidin-2-yl)amino)pyridin-3-yl)piperazin-1-yl)acetamido)piperidin-1-yl)pentanamido)-N-(6-methoxypyridazin-3-yl)benzamide]	A (protein percentage degradation >=80%)	50 to 80	–	–	–
CC(=O)c1c(C)c2cnc(Nc3ccc(N4CCN(CC(=O)NCCOCCOCCC(=O)Nc5cccc(Cl)c5C(=O)Nc5ccc(C)cn5)CC4)cn3)nc2n(C2CCCC2)c1=O [CPD-337]	D (protein percentage degradation <30%)	< 30	–	–	–
CC(=O)c1c(C)c2cnc(Nc3ccc(N4CCN(CC(=O)NCCOCCOCCC(=O)Nc5ccccc5C(=O)Nc5nc(Br)c(C)s5)CC4)cn3)nc2n(C2CCCC2)c1=O [CPD-071, 2-(3-(2-(2-(2-(4-(6-((6-Acetyl-8-cyclopentyl-5-methyl-7-oxo-7,8-dihydropyrido[2,3-d]pyrimidin-2-yl)amino)pyridin-3-yl)piperazin-1-yl)acetamido)ethoxy)ethoxy)propanamido)-N-(4-bromo-5-methylthiazol-2-yl)benzamide]	A (protein percentage degradation >=80%)	> 80	–	–	–
CC(=O)c1c(C)c2cnc(Nc3ccc(N4CCN(CC(=O)NCCCCCCCNC(=O)COc5ccc(C(=O)Nc6ncc(C)s6)c(C)c5)CC4)cn3)nc2n(C2CCCC2)c1=O [CPD-037, 4-(2-((7-(2-(4-(6-((6-Acetyl-8-cyclopentyl-5-methyl-7-oxo-7,8-dihydropyrido[2,3-d]pyrimidin-2-yl)amino)pyridin-3-yl)piperazin-1-yl)acetamido)heptyl)amino)-2-oxoethoxy)-2-methyl-N-(5-methylthiazol-2-yl)benzamide]	D (protein percentage degradation <30%)	< 30	–	–	–
CC(=O)c1c(C)c2cnc(Nc3ccc(N4CCN(CC(=O)NCCCCC(=O)Nc5ccccc5C(=O)Nc5ccc(C)cn5)CC4)cn3)nc2n(C2CCCC2)c1=O [CPD-269, 2-(5-(2-(4-(6-((6-Acetyl-8-cyclopentyl-5-methyl-7-oxo-7,8-dihydropyrido[2,3-d]pyrimidin-2-yl)amino)pyridin-3-yl)piperazin-1-yl)acetamido)pentanamido)-N-(5-methylpyridin-2-yl)benzamide]	B (protein percentage degradation <80%, and >=50%)	50 to 80	–	–	–
Cc1nc(NC(=O)c2ccccc2NC(=O)CCOCCOCCOCCNC(=O)CN2CCN(c3ccc(Nc4ncc5cc6n(c5n4)C4(CCCCC4)CNC6=O)nc3)CC2)sc1C [CPD-324, N-(4,5-Dimethylthiazol-2-yl)-2-(2-oxo-1-(4-(6-((6′-oxo-7′,8′-dihydro-6′H-spiro[cyclohexane-1,9′-pyrazino[1′,2′:1,5]pyrrolo[2,3-d]pyrimidin]-2′-yl)amino)pyridin-3-yl)piperazin-1-yl)-6,9,12-trioxa-3-azapentadecan-15-amido)benzamide]	–	–	–	A (protein percentage degradation >= 80%)	50 to 80
CC(=O)c1c(C)c2cnc(Nc3ccc(N4CCN(CC(=O)NCCOCCOCCC(=O)Nc5ccccc5C(=O)Nc5ccc(C#N)nn5)CC4)cn3)nc2n(C2CCCC2)c1=O [CPD-369, 2-(3-(2-(2-(2-(4-(6-((6-Acetyl-8-cyclopentyl-5-methyl-7-oxo-7,8-dihydropyrido[2,3-d]pyrimidin-2-yl)amino)pyridin-3-yl)piperazin-1-yl)acetamido)ethoxy)ethoxy)propanamido)-N-(6-cyanopyridazin-3-yl)benzamide]	D (protein percentage degradation <30%)	< 30	–	–	–
CC(=O)c1c(C)c2cnc(Nc3ccc(N4CCN(CC(=O)NCCOCCOCCC(=O)Nc5ccccc5C(=O)Nc5ccccn5)CC4)cn3)nc2n(C2CCCC2)c1=O [CPD-053, 2-(3-(2-(2-(2-(4-(6-((6-Acetyl-8-cyclopentyl-5-methyl-7-oxo-7,8-dihydropyrido[2,3-d]pyrimidin-2-yl)amino)pyridin-3-yl)piperazin-1-yl)acetamido)ethoxy)ethoxy)propanamido)-N-(pyridin-2-yl)benzamide]	B (protein percentage degradation <80%, and >=50%)	50 to 80	–	–	–
Cc1nc(NC(=O)c2ccccc2NC(=O)CCCCCCCNC(=O)CN2CCN(Cc3ccc(Nc4ncc(F)c(-c5cc(F)c6nc(C)n(C(C)C)c6c5)n4)nc3)CC2)sc1C [CPD-278, N-(4,5-Dimethylthiazol-2-yl)-2-(8-(2-(4-((6-((5-fluoro-4-(4-fluoro-1-isopropyl-2-methyl-1H-benzo[d]imidazol-6-yl)pyrimidin-2-yl)amino)pyridin-3-yl)methyl)piperazin-1-yl)acetamido)octanamido)benzamide]	–	–	–	D (protein percentage degradation < 30%)	< 30

— patent publication US20250235543A1, “MODIFIED PROTEINS AND PROTEIN DEGRADERS” (Cullgen (Shanghai), Inc., priority 2021, published 2025)
